pKd: −log10 of the molar value. *1 amine or outer side, *2 acyl side, *3 side chain or, on linkers, in order; H or OH if unused. Where a SMILES comes first, the peptide text is derived from it. [ ]: non-standard residue; d: D form. The star is where a group is joined. ACHC(1S,2S) = O=C([C@H]1CCCC[C@@H]1N[*:1])[*:2]; Oic = O=C(O)[C@@H]1C[C@@H]2CCCC[C@@H]2N1; X6 = O=C([C@@H]1CC(O)CN1[*:1])[*:2]; NMeF = CN[C@@H](Cc1ccccc1)C(=O)O; tBuAla = CC(C)(C)C[C@H](N)C(=O)O; Cha = N[C@@H](CC1CCCCC1)C(=O)O; Phe(ol) = N[C@H](CO)Cc1ccccc1; NHPhenethyl = c1ccc(CCN*)cc1; Pip = O=C(O)[C@@H]1CCCCN1; X4 = NC[C@H](Cc1ccccc1)N*
Legend:
[1] = Binding affinity to Escherichia coli sliding clamp assessed as dissociation constant by ITC analysis
Escherichia coli [2] = experiment: Binding affinity to Escherichia coli sliding clamp assessed as gibbs free energy change by ITC analysis
Escherichia coli [3] = experiment: Binding affinity to Escherichia coli sliding clamp assessed as association rate constant by ITC analysis
Escherichia coli [4] = experiment: Binding affinity to Escherichia coli sliding clamp assessed as dissociation rate constant by ITC analysis

Row | Structure (SMILES) | pKd [1] | deltaG (Escherichia coli [2]) | K (Escherichia coli [3]) | K (Escherichia coli [4])
1 | CC(=O)N[C@@H](CCC(N)=O)C(=O)N[C@@H](CC1CCCCC1)C(=O)N[C@@H](CC(=O)O)C(=O)N[C@@H](CC(C)C)C(=O)NCCc1ccccc1 (Ac-Q[Cha]DL-NHPhenethyl) | 6.04 | -8.2 kcal/mol | 1.9 10^4/M/s | 1.8 10^-2/s
2 | CC(=O)N[C@@H](CCC(N)=O)C(=O)N[C@@H](CC1CCCCC1)C(=O)N[C@@H](CC(=O)O)C(=O)N[C@@H](CC(C)C)C(=O)N[C@H](CN)Cc1ccccc1 (Ac-Q[Cha]DL-X4) | 6.06 | -8.27 kcal/mol | 1.2 10^4/M/s | 1.1 10^-2/s
3 | CC(=O)N[C@@H](CCC(N)=O)C(=O)N[C@@H](CC1CCCCC1)C(=O)N[C@@H](CC(=O)O)C(=O)N[C@@H](CC(C)C)C(=O)N[C@@H](Cc1ccccc1)C(N)=O (Ac-Q[Cha]DLF-NH2) | 6.57 | -9 kcal/mol | 3.3 10^4/M/s | 9.1 10^-3/s
4 | CC(=O)N[C@@H](CCC(N)=O)C(=O)N[C@@H](CC1CCCCC1)C(=O)N[C@@H](CC(=O)O)C(=O)N[C@@H](CC(C)C)C(=O)NCC(=O)N[C@@H](Cc1ccccc1)C(=O)O (Ac-Q[Cha]DLGF-OH) | 6.50 | -8.9 kcal/mol | 3.2 10^4/M/s | 1.1 10^-2/s
5 | CC(=O)N[C@@H](CCC(N)=O)C(=O)N[C@@H](CC1CCCCC1)C(=O)N[C@@H](CC(=O)O)C(=O)N[C@@H](CC(C)C)C(=O)NCC(=O)N[C@@H](CC(C)C)C(=O)O (Ac-Q[Cha]DLGL-OH) | 6.17 | -8.4 kcal/mol | 2.6 10^4/M/s | 1.7 10^-2/s
6 | CC(=O)N[C@@H](CCC(N)=O)C(=O)N[C@@H](CC1CCCCC1)C(=O)N[C@@H](CC(=O)O)C(=O)N[C@@H](CC(C)C)C(=O)NCC(=O)N[C@@H](CC(C)(C)C)C(=O)O (Ac-Q[Cha]DLG[tBuAla]-OH) | 5.57 | -7.6 kcal/mol | 1.1 10^4/M/s | 3 10^-2/s
7 | CC(=O)N[C@@H](CCC(N)=O)C(=O)N[C@@H](CC1CCCCC1)C(=O)N[C@@H](CC(=O)O)C(=O)N[C@@H](CC(C)C)C(=O)N1CCC[C@H]1C(=O)N[C@@H](Cc1ccccc1)C(=O)O (Ac-Q[Cha]DLPF-OH) | 7.09 | -9.7 kcal/mol | 6 10^4/M/s | 5 10^-3/s
8 | CC(=O)N[C@@H](CCC(N)=O)C(=O)N[C@@H](CC1CCCCC1)C(=O)N[C@@H](CC(=O)O)C(=O)N[C@@H](CC(C)C)C(=O)N1CCC[C@H]1C(=O)N[C@@H](CC(C)C)C(=O)O (Ac-Q[Cha]DLPL-OH) | 6.74 | -9.2 kcal/mol | 5.7 10^4/M/s | 1.1 10^-2/s
9 | CC(=O)N[C@@H](CCC(N)=O)C(=O)N[C@@H](CC1CCCCC1)C(=O)N[C@@H](CC(=O)O)C(=O)N[C@@H](CC(C)C)C(=O)N[C@H]1CCCC[C@@H]1C(=O)N[C@@H](CC(C)C)C(=O)O (Ac-Q[Cha]DL[ACHC(1S,2S)]L-OH) | 5.39 | -7.4 kcal/mol | 7.4 10^4/M/s | 2.9 10^-2/s
10 | CC(=O)N[C@@H](CCC(N)=O)C(=O)N[C@@H](CC1CCCCC1)C(=O)N[C@@H](CC(=O)O)C(=O)N[C@@H](CC(C)C)C(=O)N(C)[C@@H](Cc1ccccc1)C(=O)O (Ac-Q[Cha]DL[NMeF]-OH) | < 6.00 | -7.1 kcal/mol | 1 10^4/M/s | 5.4 10^-2/s
11 | CC(=O)N[C@@H](CCC(N)=O)C(=O)N[C@@H](CC1CCCCC1)C(=O)N[C@@H](CC(=O)O)C(=O)N[C@@H](CC(C)C)C(=O)N1[C@H](C(=O)N[C@@H](Cc2ccccc2)C(=O)O)C[C@@H]2CCCC[C@@H]21 (Ac-Q[Cha]DL[Oic]F-OH) | 6.92 | -9.5 kcal/mol | 5.5 10^4/M/s | 7.1 10^-3/s
12 | CC(=O)N[C@@H](CCC(N)=O)C(=O)N[C@@H](CC1CCCCC1)C(=O)N[C@@H](CC(=O)O)C(=O)N[C@@H](CC(C)C)C(=O)N1[C@H](C(=O)N[C@@H](CC(C)C)C(=O)O)C[C@@H]2CCCC[C@@H]21 (Ac-Q[Cha]DL[Oic]L-OH) | 7.24 | -9.9 kcal/mol | 7.1 10^4/M/s | 3.9 10^-3/s
13 | CC(=O)N[C@@H](CCC(N)=O)C(=O)N[C@@H](CC1CCCCC1)C(=O)N[C@@H](CC(=O)O)C(=O)N[C@@H](CC(C)C)C(=O)N[C@H](CO)Cc1ccccc1 (Ac-Q[Cha]DL[Phe(ol)]) | 6.12 | -8.4 kcal/mol | 2.6 10^4/M/s | 1.9 10^-2/s
14 | CC(=O)N[C@@H](CCC(N)=O)C(=O)N[C@@H](CC1CCCCC1)C(=O)N[C@@H](CC(=O)O)C(=O)N[C@@H](CC(C)C)C(=O)N1CCCC[C@H]1C(=O)N[C@@H](CC(C)C)C(=O)O (Ac-Q[Cha]DL[Pip]L-OH) | 6.61 | -9 kcal/mol | 4.3 10^4/M/s | 1 10^-2/s
15 | CC(=O)N[C@@H](CCC(N)=O)C(=O)N[C@@H](CC1CCCCC1)C(=O)N[C@@H](CC(=O)O)C(=O)N[C@@H](CC(C)C)C(=O)N1CC(O)C[C@H]1C(=O)N[C@@H](CC(C)C)C(=O)O (stereo partly drawn) (Ac-Q[Cha]DL[X6]L-OH) | 6.43 | -8.8 kcal/mol | 4.4 10^4/M/s | 1.7 10^-2/s

Reference: ChEMBL document CHEMBL5053545, “Iterative Structure-Based Optimization of Short Peptides Targeting the Bacterial Sliding Clamp” (J Med Chem, 2021)
